Assay results taken from patent US7807138B2, “Biomarkers of metabolic responses to hepatic drugs” (Metabolon, Inc., priority 2006, dated 2010).
Marks after values point to notes of the source that are not given here.

Assays:
[1] = test system: rat liver; test: Liver histology; format: in vivo
Protocol: […] Six rats per dose group were euthanized at 6 and 24 h post-dose. Serum (for metabolomics and alanine aminotransferase (ALT), and aspartate aminotransferase (AST)), liver lobes (for histology), and frozen liver and urine (for metabolomics) were collected. Six rats per dose group were placed in metabolism cages for urine collection at −24-0 h, 0-6 h, 6-24 h and 24-48 h. These rats were removed from metabolism cages at 48 h post-dose, for blood and liver collection. The detailed study design is set forth in Chart 1.

[2] = test system: rat liver; test: LC-MS metabolomics of liver from rats dosed with clofibrate; format: in vivo; details: LCMS
Protocol: In one embodiment, the hepatotoxicant is clofibrate. Clofibrate or vehicle is administered orally (0, 50, 250 mg/kg/d) to groups of 6 rats and serum and livers are collected 6 and 24 h after either a single or 14 daily doses. Global biochemical profiles are determined by LC-MS and GC-MS and components highly perturbed by clofibrate exposure are identified by the methods described above. […] Rats (6 per group) were dosed by gavage with vehicle, 50 or 250 mg/kg clofibrate per day for 1 (single dose) or 14 days (repeated dose). These groups are referred to as “day 1” and ‘day 14 (d 1 and d14).” Liver and serum were collected at 6 and 24 h post-dosing in the day 1 and day 14. In detail, a single dose of clofibrate or vehicle was administered by gavage (0, 50 and 250 mg/kg) to groups of 18 male Sprague Dawley rats at 11 wks age. Six rats per dose group were euthanized at 6 and 24 h post-dose. Serum (for metabolomics and alanine aminotransferase (ALT), and aspartate aminotransferase (AST)), liver lobes (for histology), and frozen liver and urine (for metabolomics) were collected. Six rats per dose group were placed in metabolism cages for urine collection at −24-0 h, 0-6 h, 6-24 h and 24-48 h. These rats were removed from metabolism cages at 48 h post-dose, for blood and liver collection. The detailed study design is set forth in Chart 1. Samples were extracted with 20% acetonitrile, then were evaporated and re-constituted in distilled water. For the liver, the left lobe was selected for metabolomic analysis. LC-MS was performed in positive and negative electrospray ionization modes on Bruker time of flight (TOF) instruments, using Icoria™ proprietary HPLC methods and picking and alignment programs. Samples were randomly placed in wells on 96-well plates, keeping d 1 and d 14 samples on separate plates. Between 54 and 72 samples plus quality control samples were run on each plate. Pre- and post-flight instrument checks were carried out. Thereafter, data integrity checks were performed to detect any errors related to our Laboratory Information Management System (LIMS) system, labeling of samples, and missing or extraneous information. […] Metabolites associated with LC-MS components were putatively identified using our proprietary database of mammalian metabolites as well as external sources of metabolic information.

[3] = test system: rat liver; details: rats, cited from earlier work
[4] = test system: rat liver; test: GC-MS metabolomics of liver from rats dosed with clofibrate; format: in vivo; details: 250 mg/kg/d
Protocol: In one embodiment, the hepatotoxicant is clofibrate. Clofibrate or vehicle is administered orally (0, 50, 250 mg/kg/d) to groups of 6 rats and serum and livers are collected 6 and 24 h after either a single or 14 daily doses. Global biochemical profiles are determined by LC-MS and GC-MS and components highly perturbed by clofibrate exposure are identified by the methods described above. […] Rats (6 per group) were dosed by gavage with vehicle, 50 or 250 mg/kg clofibrate per day for 1 (single dose) or 14 days (repeated dose). These groups are referred to as “day 1” and ‘day 14 (d 1 and d14).” Liver and serum were collected at 6 and 24 h post-dosing in the day 1 and day 14. In detail, a single dose of clofibrate or vehicle was administered by gavage (0, 50 and 250 mg/kg) to groups of 18 male Sprague Dawley rats at 11 wks age. Six rats per dose group were euthanized at 6 and 24 h post-dose. Serum (for metabolomics and alanine aminotransferase (ALT), and aspartate aminotransferase (AST)), liver lobes (for histology), and frozen liver and urine (for metabolomics) were collected. Six rats per dose group were placed in metabolism cages for urine collection at −24-0 h, 0-6 h, 6-24 h and 24-48 h. These rats were removed from metabolism cages at 48 h post-dose, for blood and liver collection. The detailed study design is set forth in Chart 1. For GC-MS, liver was extracted with CHCl3:MeOH mixtures. Organic residue was derivitized with BSTFA and dried aqueous residues were derivitized with methoxyamine HCl/BSTFA. Samples were injected with 10:1 split into an Agilent 6890 gas chromatograph. A Leco Pegasus III TOFMS was used. Ions were generated at 70 eV with 3.2 mA ionization current; 25 spectra/s were recorded for 60-800 m/z. Acceleration voltage activated after 180 solvent delay. Detector voltage: 1750 V. Data were processed with Leco ChromaTOF software. Automatic peak detection and mass spectrum deconvolution were performed using 1.33 s peak width. Peaks with S/N less than 20 were rejected. Component identification was accomplished with the NIST 98' MS library and, in some cases, verified with standards. Components with similarity greater than 600 were used for analysis.

[5] = test system: rats; test: Liver enzymes ALT and AST in serum; format: in vivo, rat; details: 50 or 250 mg/kg, any groups
Protocol: In detail, a single dose of clofibrate or vehicle was administered by gavage (0, 50 and 250 mg/kg) to groups of 18 male Sprague Dawley rats at 11 wks age. Six rats per dose group were euthanized at 6 and 24 h post-dose. Serum (for metabolomics and alanine aminotransferase (ALT), and aspartate aminotransferase (AST)), liver lobes (for histology), and frozen liver and urine (for metabolomics) were collected. Six rats per dose group were placed in metabolism cages for urine collection at −24-0 h, 0-6 h, 6-24 h and 24-48 h. These rats were removed from metabolism cages at 48 h post-dose, for blood and liver collection. The detailed study design is set forth in Chart 1.

[6] = 50 mg/kg/d for 14 days, 6 H after administration
[7] = 50 mg/kg/d for 14 days, 24 H after administration
[8] = 250 mg/kg/d for 14 days, 6 H after administration
[9] = 250 mg/kg/d for 14 days, 24 H after administration

Question: Which “Histology: hepatocellular cytologic alterations” value ([1]; after 14 doses at 250 mg/kg/day, all time points) does the source give for `CCOC(=O)C(C)(C)Oc1ccc(Cl)cc1` [Clofibrate, ethyl-p-chloro-phenoxyisobutyrate] here?
Answer: hepatocellular cytologic alterations (indicating loss of glycogen and eosinophilic granular cytoplasm) were noted at all time points

Question: What about the “Histology: hepatocellular mitotic figures” value ([1]; after a single dose, 50 to 250-mg/kg) of the same compound?
Answer: dose related increase and severity of hepatocellular mitotic figures

Question: And the “D-Glycerate fold change relative to control” value [2, 6]?
Answer: 1.3 fold change

Question: And the “Glycero-3-phosphoethanolamine fold change relative to control” value [2, 6]?
Answer: −3.2 fold change

Question: And the “Threonate fold change relative to control” value [2, 6]?
Answer: 1.3 fold change

Question: And the “Ornithine fold change relative to control” value [2, 7]?
Answer: 1.84 fold change

Question: And the “Threonate fold change relative to control” value [2, 7]?
Answer: −1.4 fold change

Question: What about the “Various bile acids fold change relative to control” value [2, 7] of the same compound?
Answer: 1.3 fold change

Question: And the “Creatine fold change relative to control” value [2, 8]?
Answer: 1.4 fold change

Question: And the “D-Glycerate fold change relative to control” value [2, 8]?
Answer: 1.2 fold change

Question: What about the “Glutathione fold change relative to control” value [2, 8] of the same compound?
Answer: −1.5 fold change

Question: What about the “Glycero-3-phosphoethanolamine fold change relative to control” value [2, 8] of the same compound?
Answer: −7.7 fold change

Question: And the “Hypotaurine fold change relative to control” value [2, 8]?
Answer: 1.3 fold change

Question: What about the “Ornithine fold change relative to control” value [2, 8] of the same compound?
Answer: 2.3-5.4 fold change

Question: What about the “Serine fold change relative to control” value [2, 8] of the same compound?
Answer: 1.3-1.7 fold change

Question: And the “Various bile acids fold change relative to control” value [2, 8]?
Answer: 1.4 fold change

Question: And the “Creatine fold change relative to control” value [2, 9]?
Answer: 2.1 fold change

Question: What about the “Hypotaurine fold change relative to control” value [2, 9] of the same compound?
Answer: 1.3 fold change

Question: And the “Ornithine fold change relative to control” value [2, 9]?
Answer: 2.8-10.6 fold change

Question: What about the “Serine fold change relative to control” value [2, 9] of the same compound?
Answer: 1.7 fold change

Question: What about the “Microscopic changes to liver” value ([3]; 24 h after a single exposure) of the same compound?
Answer: no microscopic changes to liver

Question: And the Liver histopathology ([3]; after 2 weeks)?
Answer: induced hypertrophy

Question: And the “1-Mono linoleoylglycerol fold change” value ([4]; DAY 1, 6 H)?
Answer: 1.11*** fold change

Question: And the “1-Mono oleoylglycerol fold change” value ([4]; DAY 1, 6 H)?
Answer: 0.98* fold change

Question: What about the “1-Mono palmitoylglycerol fold change” value ([4]; DAY 1, 6 H) of the same compound?
Answer: 0.91** fold change

Question: What about the “2-Mono oleoylglycerol fold change” value ([4]; DAY 1, 6 H) of the same compound?
Answer: 1.12*** fold change

Question: And the Cholesterol fold change ([4]; DAY 1, 6 H)?
Answer: 1.34*** fold change

Question: And the “Glucose (aq) fold change” value ([4]; DAY 1, 6 H)?
Answer: 0.29* fold change

Question: And the Glycine fold change ([4]; DAY 1, 6 H)?
Answer: 2.69** fold change

Question: And the “Lactic acid fold change” value ([4]; DAY 1, 6 H)?
Answer: 1.56** fold change

Question: What about the “Linoleic acid fold change” value ([4]; DAY 1, 6 H) of the same compound?
Answer: 0.97* fold change

Question: And the Palmitate fold change ([4]; DAY 1, 6 H)?
Answer: 0.95*** fold change

Question: What about the Stearate fold change ([4]; DAY 1, 6 H) of the same compound?
Answer: 1.07* fold change

Question: And the “1-Mono stearoylglycerol fold change” value ([4]; DAY 1, 24 H)?
Answer: 17.14** fold change

Question: And the “Glycerol 1(3)-phosphate fold change” value ([4]; DAY 1, 24 H)?
Answer: 2.56* fold change

Question: What about the Glycine fold change ([4]; DAY 1, 24 H) of the same compound?
Answer: 3.42* fold change

Question: What about the “L-Aspartic acid fold change” value ([4]; DAY 1, 24 H) of the same compound?
Answer: 27.88*** fold change

Question: And the “Lactic acid fold change” value ([4]; DAY 1, 24 H)?
Answer: 4.41* fold change

Question: What about the “Succinic acid (Butanedioic acid) fold change” value ([4]; DAY 1, 24 H) of the same compound?
Answer: 17.05** fold change

Question: What about the l-Alanine fold change ([4]; DAY 1, 24 H) of the same compound?
Answer: 4.74* fold change

Question: What about the “1-Mono palmitoylglycerol fold change” value ([4]; DAY 14, 6 H) of the same compound?
Answer: 0.04** fold change

Question: And the “1-Mono stearoylglycerol fold change” value ([4]; DAY 14, 6 H)?
Answer: 0.22** fold change

Question: What about the “2-Mono stearoylglycerol fold change” value ([4]; DAY 14, 6 H) of the same compound?
Answer: 0.41* fold change

Question: And the “Arachidonic acid fold change” value ([4]; DAY 14, 6 H)?
Answer: 0.22*** fold change

Question: And the Cholesterol fold change ([4]; DAY 14, 6 H)?
Answer: 1.87** fold change

Question: What about the Malate fold change ([4]; DAY 14, 6 H) of the same compound?
Answer: 0.1** fold change

Question: And the Palmitate fold change ([4]; DAY 14, 6 H)?
Answer: 0.72** fold change

Question: What about the β-Sitosterol fold change ([4]; DAY 14, 6 H) of the same compound?
Answer: 0.37** fold change

Question: And the Cholesterol fold change ([4]; DAY 14, 24 H)?
Answer: 0.69** fold change

Question: What about the “Docosahexaenoic acid fold change” value ([4]; DAY 14, 24 H) of the same compound?
Answer: 0.58* fold change

Question: And the “Glucose (aq) fold change” value ([4]; DAY 14, 24 H)?
Answer: 0.39** fold change

Question: And the Malate fold change ([4]; DAY 14, 24 H)?
Answer: 0.33** fold change

Question: And the β-Sitosterol fold change ([4]; DAY 14, 24 H)?
Answer: 0.46* fold change

Question: And the “Clofibrate metabolite Propanoic acid, 2-(4-chlorophenoxy)-2-methyl- in liver” value ([4]; cell spans the time columns)?
Answer: (not present in control)

Question: What about the ALT [5] of the same compound?
Answer: not elevated

Question: What about the AST [5] of the same compound?
Answer: not elevated
